pEC50: −log10 of the molar value. Like-named read-outs stand apart in the source and are kept apart here. Peptide text beside a SMILES is read from it.
What was measured:
[1] = test system: HS-68 and Hela cells; experiment: Toxicity of CADY variants, MTT assay (Table 1); type: cell-based, human
Protocol: The toxicity of CADY peptides has been investigated on different cell lines. Cells were incubated in the presence of increasing concentrations of CADY (from 0.1 μM to 1 mM) for 12 hrs and cell viability was estimated using MTT assay.
The different CADY variants have been tested on HS-68 and Hela cells.
The lack of toxicity of CADY/cargo complexes can be directly associated to absence of free carrier peptide in the solution (FIG. 4B).

[2] = test system: Jurkat, WI-38, HS-68 and HeLa cells; experiment: CADY-2-mediated delivery of p27-derived peptides, cell arrest in G1 by FACS; type: cell-based
Protocol: FIG. 12: The different p27-derived peptides were associated with CADY-2 at a molar ratio of 1/20, since it was determined that at this ratio, the average size of the particle is of about 100-200 nm in diameter. The formulations were obtained in phosphate buffer, using a fixed concentration of peptide of 1 μM. Cell lines were cultured in Dulbecco's Modified Eagle's Medium supplemented with 2 mM glutamine, 1% antibiotics (streptomycin 10'000 μg/ml, penicillin, 10'000 IU/ml) and 10% (w/v) fetal calf serum (FCS), at 37° C. in a humidified atmosphere containing 5% CO2. Cells were synchronized by serum privation during 40 hrs, and cultured in Dulbecco's Modified Eagle's Medium supplemented with 2 mM glutamine, 1% antibiotics. G1 synchronized cells were released upon serum addition, then overlaid with preformed CADY-2/peptide complexes. After 30 min incubation at 37° C., 1 ml of fresh DMEM supplemented with 10% fetal calf serum was added directly to the cells, without removing the overlay of CADY/peptide complexes, and cells were returned to the incubator. The level of cell arrest in G1 was analyzed by FACS 24 hrs after release.

[3] = test system: Human H1299 adenocarcinoma cells; experiment: Effect of p1p27/CADY complexes on tumor growth in vivo, intratumoral injection; set-up: species or system Swiss nude mice; details: 5 weeks after injection, control experiments
Protocol: The tumor animal model consists of Swiss nude mice, injected subcutaneously with 2×10^7 Human H1299 adenocarcinoma cells. CADY2/p1p27 complex and free CADY-2 and peptides were injected directly into the tumor (100-300 μg) after 1 and 4 weeks. p1p27/CADY complexes were obtained as described before at a ratio 1/20. Controls were performed by injecting PBS, CADY alone, or naked p1p27 instead of the p1p27/CADY-2 complex. The size of the tumor volume was measured with calipers once a week. Results correspond to the average of 5 different animals.

[4] = test system: 5PC3 or Human H1299 adenocarcinoma cells; experiment: Intravenous injection of siRNA/CADY complexes, tumor mouse models; type: in vivo, NCR nude mice; details: only one injection, siRNA 10 μg
Protocol: Experiments were performed on two tumor mouse models.
(A) 1×10^6 5PC3 adenocarcinoma cells were injected subcutaneously into the flanks of NCR nude mice (day 1). siRNA/CADY-S complexes were obtained as described before at a ratio 1:20. CADY-S/siRNA complexes were injected intravenously at day 7. The size of the tumor was measured every day. Results correspond to the average of 5 different animals.
(B) 1×10^6 tumor cells expressing luciferase were injected intraperitoneally in the mice (4 to 8 week-old immune competent A/J female mices). Tumors were monitored using in vivo Imaging System (IVIS-Xenogen), which quantified total body bioluminescence after injection of D-luciferin. The tumor cells are visualized on three mice, each representative of one group (siRNA alone, CADY/siRNA complexes, and CADY-S/siRNA complexes).
The in vivo efficiency of CADY-S was then investigated, in order to determine if the cholesterol-modified form of CADY can improve siRNA delivery through intravenous injection and block tumor growth in vivo. Experiments were performed on two tumor mouse models, in which 5PC3 or Human H1299 adenocarcinoma cells were injected subcutaneously into the flanks of NCR nude mice.

[5] = peptide delivered with CADY-2, ratio 1/20, 1 μM peptide, 24 hrs after release

`CC(=O)NCC(=O)N[C@@H](CC(C)C)C(=O)N[C@@H](Cc1c[nH]c2ccccc12)C(=O)N[C@@H](CCCNC(=N)N)C(=O)N[C@@H](C)C(=O)N[C@@H](CC(C)C)C(=O)N[C@@H](Cc1c[nH]c2ccccc12)C(=O)N[C@@H](CCCNC(=N)N)C(=O)N[C@@H](CC(C)C)C(=O)N[C@@H](CC(C)C)C(=O)N[C@@H](CCCNC(=N)N)C(=O)N[C@@H](CO)C(=O)N[C@@H](CC(C)C)C(=O)N[C@@H](Cc1c[nH]c2ccccc12)C(=O)N[C@@H](CCCNC(=N)N)C(=O)N[C@@H](CC(C)C)C(=O)N[C@@H](CC(C)C)C(=O)N[C@@H](Cc1c[nH]c2ccccc12)C(=O)N[C@@H](CCCCN)C(=O)N[C@@H](C)C(=O)NCCSS[C@H]1CC[C@@]2(C)C(=CC[C@H]3[C@@H]4CC[C@H]([C@H](C)CCCC(C)C)[C@@]4(C)CC[C@@H]32)C1` [CADY-S2] (HELM PEPTIDE1{[ac].G.L.W.R.A.L.W.R.L.L.R.S.L.W.R.L.L.W.K.A.[CC(C)CCC[C@@H](C)[C@H]1CC[C@H]2[C@@H]3CC=C4C[C@@H](SSCCN[*:1])CC[C@]4(C)[C@H]3CC[C@]12C]}$$$$V2.0) was tested, and the pEC50 ([1]; 12 h) was 3.10.
For “NRTEENVSDGSPNAGSVEQTPKKPGLR [p2p27, p27-derived peptide used as a negative control, reference compound]”, the “cell cycle arrest in G1” value [2, 5] was “no effect”.
With RVSNGSPSLERMDARQAEHPKPSACRNL [p1p27] the “increase of tumor size” value [3] was 5 fold, the “cell cycle arrest in G1” value ([2]; carrier alone or free peptide) was “no effect” and the “cell cycle arrest in G1” value [2, 5] was “induced a cell cycle arrest in G1”.
`CC(C)CCC[C@@H](C)[C@H]1CC[C@H]2[C@@H]3CC=C4C[C@@H](OC(=O)NCC(=O)N[C@@H](CC(C)C)C(=O)N[C@@H](Cc5c[nH]c6ccccc56)C(=O)N[C@@H](CCCNC(=N)N)C(=O)N[C@@H](C)C(=O)N[C@@H](CC(C)C)C(=O)N[C@@H](Cc5c[nH]c6ccccc56)C(=O)N[C@@H](CCCNC(=N)N)C(=O)N[C@@H](CC(C)C)C(=O)N[C@@H](CC(C)C)C(=O)N[C@@H](CCCNC(=N)N)C(=O)N[C@@H](CO)C(=O)N[C@@H](CC(C)C)C(=O)N[C@@H](Cc5c[nH]c6ccccc56)C(=O)N[C@@H](CCCNC(=N)N)C(=O)N[C@@H](CC(C)C)C(=O)N[C@@H](CC(C)C)C(=O)N[C@@H](Cc5c[nH]c6ccccc56)C(=O)N[C@@H](CCCCN)C(=O)N[C@@H](C)C(=O)NCCS)CC[C@]4(C)[C@H]3CC[C@]12C` [CADY-S] (HELM PEPTIDE1{[CC(C)CCC[C@@H](C)[C@H]1CC[C@H]2[C@@H]3CC=C4C[C@@H](OC(=O)[*:2])CC[C@]4(C)[C@H]3CC[C@]12C].G.L.W.R.A.L.W.R.L.L.R.S.L.W.R.L.L.W.K.A.[SCCN[*:1]]}$$$$V2.0) was tested, and the pEC50 ([1]; complexed with cargo (ratio 1/20), MTT, read-out: complexed EC50) was 3.00 and the tumor growth [4] was “fully abolish the tumor growth”.
For PSLERMDAR [pRXL], the “efficiency compared with published TAT or Pen covalent based strategy” value ([2]; pRXL with CADY strategy) was “at least 2 fold” and the “cell cycle arrest in G1” value [2, 5] was “induced a cell cycle arrest in G1”.

From patent US8242081B2, “Cell penetrating peptides for intracellular delivery of molecules” (Centre National de la Recherche Scientifique, priority 2005, dated 2012)
